# Several values for one entry are separate records, joined by “and”; a condition that tells them apart may be missing. Equal entries are not always repeated. Where two headings read alike, the source gives them in different places.
# Columns and labels:
# LcPTR1 [1] = biological target: T1, LcPTR1 (Leishmania infantum, UniProt A4I067); test: Determination of the inhibition mechanism, LcPTR1; assay type: biochemical
# Text: (§1) The results of this analysis were plotted in double-reciprocal graphs for visual analysis purposes only.
# LcPTR1 [2] = biological target: T1, LcPTR1; test: LcPTR1 inhibition assay (single concentration and IC50, NADPH consumption at 340 nm); assay type: biochemical; settings: for Ki: obtained from Cheng-Prussov equation for competitive inhibitors; for Selectivity Ki LcPTR1/ Ki LcDHFR-TS: ratio of Ki values
# Protocol: (§2) Kinetic measurements were performed according to the protocol described[32] via spectrophotometer (Shimadzu UV-1800) at pH 4.7 (20 mM sodium acetate). NADPH consumption was monitored spectrophotometrically (340 nm) at constant temperature (30 °C). The variation of the absorbance monitored for 60 s was used to calculate the initial rate of the reaction by linear regression.
# (§3) Comparison of the enzymatic activities in the absence and presence of the compounds (50 μM), which were dissolved in DMSO (5% v/v final concentration), was employed to calculate the percent inhibition (Equation (1)) (1) % Inhibition=100 − (Vi/Vc)×100 where Vi is the initial velocity in the presence of the inhibitor and Vc is the reaction rate in the presence of DMSO (5% (v/v)).
# as §1
# LcDHFR-TS [3] = biological target: T2, LcDHFR-TS (Leishmania infantum, UniProt Q8MQV3); test: LcDHFR-TS inhibition assay (single concentration and IC50, NADPH consumption at 340 nm); assay type: biochemical; settings: for IC50: DHF 5.0 µM, NADPH 5.0 µM, pH 7.0, >50 from single-concentration assay; for Ki: obtained from Cheng-Prussov equation for competitive inhibitors
# Protocol: (§4) Kinetic measurements were carried out using a standard assay, at pH 7.0 (50 mM sodium phosphate). Briefly, NADPH consumption was monitored spectrophotometrically ([…]) (Shimadzu® UV-1800, Columbia MD, USA) at constant temperature (25 °C) and the absorbance variation within the first 30 s was employed to calculate the initial rate of reaction, by linear regression of the raw data.
# as §3, §1
# LcDHFR-TS [4] = biological target: T2, LcDHFR-TS; test: Determination of the inhibition mechanism, LcDHFR-TS; assay type: biochemical
# Text: as §1
# DHFR-TS [5] = settings: read-out: Km app for L. tropica DHFR-TS; cited from earlier work
# DHFR-TS [6] = settings: read-out: Km app for L. major DHFR-TS; cited from earlier work
# LcDHFR-TS [7] = biological target: T2, LcDHFR-TS; test: LcDHFR-TS apparent Km determination; assay type: biochemical, Leishmania chagasi
# Protocol: as §4
# The effect of the pH (5.0–8.0) over enzymatic activity was investigated with 0.2 μM of LcDHFR-TS and saturating NADPH and DHF concentrations (100 μM) (50 mM citrate buffer was used for pH 5.0 activity assay. 50 mM sodium phosphate buffer was used for pH range 6.0 to 8.0 activity assay). […] All the measurements were carried out in triplicate and the apparent Km values for the cofactor and substrate were determined under a pseudo first-order kinetics assumption using least-squares non-linear regression method, as available in the GraphPad Prism version 5.0 for Windows (GraphPad® Software, San Diego, CA, USA, www.graphpad.com).
# LdPTR1 = test system: LdPTR1; parameters: method as in PMID 21115787; settings: double-reciprocal plot, His-tag fused protein; read-out: Km app for LdPTR1; cited from earlier work
# L. tropica PTR1 = test system: L. tropica PTR1; parameters: method as in PMID 10415124; settings: cited from earlier work
# LcPTR1 [8] = biological target: T1, LcPTR1; assay type: biochemical, Leishmania chagasi; settings: restated without unit; read-out: Km app for LcPTR1
# Protocol: as §2
# L. tarantoleae PTR1 = test system: L. tarantoleae PTR1; parameters: method as in PMID 10415124; settings: read-out: Km app for L. tarantoleae PTR1; cited from earlier work
# L. major PTR1 = settings: cited from earlier work
# [9] = pH 7.0, 25 °C, other substrate saturating
# [10] = pH 7.0, 25 °C, other substrate saturating, read-out: Km app for LcDHFR-TS
# [11] = restated without unit, read-out: Km app for LcDHFR
# T1 sequence (A4I067 entry or part of it): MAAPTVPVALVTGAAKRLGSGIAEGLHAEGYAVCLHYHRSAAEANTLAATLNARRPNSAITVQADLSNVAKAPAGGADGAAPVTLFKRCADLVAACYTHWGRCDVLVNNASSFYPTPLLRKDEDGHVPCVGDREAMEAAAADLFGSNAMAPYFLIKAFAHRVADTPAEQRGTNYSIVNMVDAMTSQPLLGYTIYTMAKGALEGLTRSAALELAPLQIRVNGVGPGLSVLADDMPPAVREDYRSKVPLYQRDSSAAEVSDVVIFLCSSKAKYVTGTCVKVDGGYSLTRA
# T2 sequence (Q8MQV3 entry or part of it): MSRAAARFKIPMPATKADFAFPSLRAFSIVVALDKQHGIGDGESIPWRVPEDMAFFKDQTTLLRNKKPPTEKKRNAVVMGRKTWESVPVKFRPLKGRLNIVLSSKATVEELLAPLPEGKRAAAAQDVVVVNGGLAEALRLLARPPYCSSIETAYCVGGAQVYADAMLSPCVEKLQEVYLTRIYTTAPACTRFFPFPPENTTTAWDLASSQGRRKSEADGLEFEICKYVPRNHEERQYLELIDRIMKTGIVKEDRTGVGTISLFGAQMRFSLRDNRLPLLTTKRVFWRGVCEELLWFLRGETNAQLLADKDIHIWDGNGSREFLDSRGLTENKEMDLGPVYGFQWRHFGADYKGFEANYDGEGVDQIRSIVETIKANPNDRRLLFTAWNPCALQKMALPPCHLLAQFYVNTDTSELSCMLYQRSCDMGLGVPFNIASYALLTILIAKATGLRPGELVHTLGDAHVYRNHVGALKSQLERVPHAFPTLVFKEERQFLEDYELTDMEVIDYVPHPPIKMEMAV
molecule,measurement,setting,value
Nc1nc(N)c(Cc2ccccc2)c(CCCc2ccccc2)n1 [Compound 1],mechanism of inhibition with respect to biopterin,LcPTR1 [1],competitive
same,mechanism of inhibition with respect to the cofactor NADPH,LcPTR1 [1],uncompetitive
same,IC50,LcPTR1 [2],3000 nM
same,Ki,LcPTR1 [2],1500 nM
same,inhibition at 50 µM,LcPTR1 [2]; pH 4.7,90 ± 1%
same,Selectivity Ki LcPTR1/ Ki LcDHFR-TS,LcPTR1 [2],5.4 and 5.45
same,IC50,LcDHFR-TS [3],1650 nM
same,Ki,LcDHFR-TS [3],280 nM
same,inhibition at 50 µM,LcDHFR-TS [3]; pH 7,100 ± 1.17%
same,NADPH Vmax app in presence of inhibitor,LcDHFR-TS [4]; compound 1 at 2 µM,1.0 ± 0.1 nmol/min/mL
same,NADPH Vmax app in presence of inhibitor,LcDHFR-TS [4]; compound 1 at 5 µM,0.5 ± 0.05 nmol/min/mL
same,DHF Vmax app in presence of inhibitor,LcDHFR-TS [4]; not affected by increasing concentrations of compound 1,1.9 ± 0.1 nmol/min/mL
same,mechanism of inhibition related to cofactor NADPH,"LcDHFR-TS [4]; saturating DHF 12.5 µM, varying NADPH",noncompetitive
same,mechanism of inhibition related to substrate DHF,"LcDHFR-TS [4]; saturating NADPH 50 µM, varying DHF",competitive
Nc1nc(N)c(Cc2ccccc2)c(CC2CCCCC2)n1 [Compound 2],IC50,LcPTR1 [2],4100 nM
same,Ki,LcPTR1 [2],2050 nM
same,inhibition at 50 µM,LcPTR1 [2]; pH 4.7,40 ± 1%
same,Selectivity Ki LcPTR1/ Ki LcDHFR-TS,LcPTR1 [2],0.68
same,IC50,LcDHFR-TS [3],18000 nM
same,Ki,LcDHFR-TS [3],3000 nM
same,inhibition at 50 µM,LcDHFR-TS [3]; pH 7,20 ± 2.4%
COc1ccccc1CCc1nc(N)nc(N)c1Cc1ccccc1 [Compound 3],IC50,LcPTR1 [2],4600 nM
same,Ki,LcPTR1 [2],2300 nM
same,LcPTR1 inhibition,LcPTR1 [2]; pH 4.7,active
same,Selectivity Ki LcPTR1/ Ki LcDHFR-TS,LcPTR1 [2],3.3 and 3.29
same,IC50,LcDHFR-TS [3],4200 nM
same,Ki,LcDHFR-TS [3],700 nM
same,LcDHFR-TS inhibition,LcDHFR-TS [3]; pH 7,active
CC(C)Cc1ccc(C(C)c2nc(N)nc(N)c2-c2ccccc2)cc1 (centres unmarked) [Compound 4],IC50,LcPTR1 [2],66300 ± 9010 nM
same,inhibition at 50 µM,LcPTR1 [2]; pH 4.7,40 ± 1%
same,inhibition at 50 µM,LcDHFR-TS [3]; pH 7,20 ± 2.4%
Nc1nc(N)c2ccccc2n1 [Compound 5],mechanism of inhibition with respect to biopterin,LcPTR1 [1],competitive
same,mechanism of inhibition with respect to the cofactor NADPH,LcPTR1 [1],uncompetitive
same,IC50,LcPTR1 [2],940 nM
same,Ki,LcPTR1 [2],470 nM
same,inhibition at 50 µM,LcPTR1 [2]; pH 4.7,98 ± 0.8%
same,selectivity index,"LcPTR1 [2]; selective LcPTR1 inhibitor, LcPTR1 over LcDHFR-TS (abstract)",20
same,IC50,LcDHFR-TS [3],> 50000 nM
same,Ki,LcDHFR-TS [3],> 8330 nM
same,inhibition at 50 µM,LcDHFR-TS [3]; pH 7,20 ± 2.4%
Nc1nc(=O)c2c([nH]1)NCC(CNc1ccc(C(=O)N[C@@H](CCC(=O)O)C(=O)O)cc1)=N2 [DHF],Km,DHFR-TS [5],1.5 µM
same,Km,DHFR-TS [6],1.6 µM
same,Vmax app for LcDHFR-TS,LcDHFR-TS [7]; [9],2.0 ± 0.11 nmol/min/mL
same,Km,LcDHFR-TS [7]; [10],1 ± 0.2 µM
same,Km,LcDHFR-TS [7]; [11],1 µM
NC(=O)C1=CN([C@@H]2O[C@H](COP(=O)(O)OP(=O)(O)OC[C@H]3O[C@@H](n4cnc5c(N)ncnc54)[C@H](OP(=O)(O)O)[C@@H]3O)[C@@H](O)[C@H]2O)C=CC1 [NADPH],Km,LdPTR1,18.5 µM
same,Km,DHFR-TS [5],2.7 µM
same,Km,DHFR-TS [6],0.45 µM
same,Vmax app for LcDHFR-TS,LcDHFR-TS [7]; [9],1.6 ± 0.1 nmol/min/mL
same,Km,LcDHFR-TS [7]; [10],2.3 ± 0.5 µM
same,Km,LcDHFR-TS [7]; [11],2.3 µM
same,Km,L. tropica PTR1,19 µM
same,Km,LcPTR1 [8],37.5 µM
same,Km,L. tarantoleae PTR1,19 µM
same,Km,L. major PTR1,6.7 µM
biopterin,Km,LdPTR1,5.8 µM
same,Km,L. tropica PTR1,3.5 µM
same,Km,L. tarantoleae PTR1,3.5 µM
same,Km,L. major PTR1,4.6 µM

# — PMC6713189, “Dual and selective inhibitors of pteridine reductase 1 (PTR1) and dihydrofolate reductase-thymidylate synthase (DHFR-TS) from Leishmania chagasi” (Journal of Enzyme Inhibition and Medicinal Chemistry, 2019)
